What was measured:
Rattus norvegicus [1] = species: Rattus norvegicus; assay: Compound was evaluated for the measurement of Cerebral blood flow in medial geniculate body of Rats (hypercapnia); assay type: functional
Rattus norvegicus [2] = species: Rattus norvegicus; assay: Compound was evaluated for the measurement of Cerebral blood flow in medial geniculate body of Rats (normocapnia); assay type: functional
Rattus norvegicus [3] = species: Rattus norvegicus; assay: Compound was evaluated for the measurement of Cerebral blood flow in nucleus accumbens of Rats (hypercapnia); assay type: functional, Brain
Rattus norvegicus [4] = species: Rattus norvegicus; assay: Compound was evaluated for the measurement of Cerebral blood flow in nucleus accumbens of Rats (normocapnia); assay type: functional, Brain
Rattus norvegicus [5] = species: Rattus norvegicus; assay: Compound was evaluated for the measurement of Cerebral blood flow in nucleus ruber of Rats (hypercapnia); assay type: functional, Brain
Rattus norvegicus [6] = species: Rattus norvegicus; assay: Compound was evaluated for the measurement of Cerebral blood flow in nucleus ruber of Rats (normocapnia); assay type: functional, Brain
Rattus norvegicus [7] = species: Rattus norvegicus; assay: Compound was evaluated for the measurement of Cerebral blood flow in parietal cortex of Rats (hypercapnia); assay type: functional
Rattus norvegicus [8] = species: Rattus norvegicus; assay: Compound was evaluated for the measurement of Cerebral blood flow in parietal cortex of Rats (normocapnia); assay type: functional
Rattus norvegicus [9] = species: Rattus norvegicus; assay: Compound was evaluated for the measurement of Cerebral blood flow in piriform cortex of Rats (normocapnia); assay type: functional
Rattus norvegicus [10] = species: Rattus norvegicus; assay: Compound was evaluated for the measurement of Cerebral blood flow in sensorimotor cortex of Rats (hypercapnia); assay type: functional, Brain
Rattus norvegicus [11] = species: Rattus norvegicus; assay: Compound was evaluated for the measurement of Cerebral blood flow in sensorimotor cortex of Rats (normocapnia); assay type: functional, Brain
Rattus norvegicus [12] = species: Rattus norvegicus; assay: Compound was evaluated for the measurement of Cerebral blood flow in septal nucleus of Rats (hypercapnia); assay type: functional, Brain
Rattus norvegicus [13] = species: Rattus norvegicus; assay: Compound was evaluated for the measurement of Cerebral blood flow in septal nucleus of Rats (normocapnia); assay type: functional, Brain
Rattus norvegicus [14] = species: Rattus norvegicus; assay: Compound was evaluated for the measurement of Cerebral blood flow in substantia nigra of Rats (hypercapnia); assay type: functional
Rattus norvegicus [15] = species: Rattus norvegicus; assay: Compound was evaluated for the measurement of Cerebral blood flow in substantia nigra of Rats (normocapnia); assay type: functional
Rattus norvegicus [16] = species: Rattus norvegicus; assay: Compound was evaluated for the measurement of Cerebral blood flow in superior coliculus of Rats (hypercapnia); assay type: functional, Brain
Rattus norvegicus [17] = species: Rattus norvegicus; assay: Compound was evaluated for the measurement of Cerebral blood flow in amygdala of Rats (hypercapnia); assay type: functional
Rattus norvegicus [18] = species: Rattus norvegicus; assay: Compound was evaluated for the measurement of Cerebral blood flow in amygdala of Rats (normocapnia); assay type: functional
Rattus norvegicus [19] = species: Rattus norvegicus; assay: Compound was evaluated for the measurement of Cerebral blood flow in auditory cortex of Rats (hypercapnia); assay type: functional
Rattus norvegicus [20] = species: Rattus norvegicus; assay: Compound was evaluated for the measurement of Cerebral blood flow in caudoputamen of Rats ((hypercapnia); assay type: functional, Brain
Rattus norvegicus [21] = species: Rattus norvegicus; assay: Compound was evaluated for the measurement of Cerebral blood flow in superior coliculus of Rats (normocapnia); assay type: functional, Brain
Rattus norvegicus [22] = species: Rattus norvegicus; assay: Compound was evaluated for the measurement of Cerebral blood flow in thalamus of Rats (hypercapnia); assay type: functional
Rattus norvegicus [23] = species: Rattus norvegicus; assay: Compound was evaluated for the measurement of Cerebral blood flow in thalamus of Rats (normocapnia); assay type: functional
Rattus norvegicus [24] = species: Rattus norvegicus; assay: Compound was evaluated for the measurement of Cerebral blood flow in visual cortex of Rats (hypercapnia); assay type: functional
Rattus norvegicus [25] = species: Rattus norvegicus; assay: Compound was evaluated for the measurement of Cerebral blood flow in visual cortex of Rats (normocapnia); assay type: functional
Rattus norvegicus [26] = species: Rattus norvegicus; assay: Compound was evaluated for the measurement of Cerebral blood flow in caudoputamen of Rats (normocapnia); assay type: functional, Brain
Rattus norvegicus [27] = species: Rattus norvegicus; assay: Compound was evaluated for the measurement of Cerebral blood flow in cerebellum of Rats (hypercapnia); assay type: functional
Rattus norvegicus [28] = species: Rattus norvegicus; assay: Compound was evaluated for the measurement of Cerebral blood flow in cerebellum of Rats (normocapnia); assay type: functional
Rattus norvegicus [29] = species: Rattus norvegicus; assay: Compound was evaluated for the measurement of Cerebral blood flow in cingulate cortex of Rats (hypercapnia); assay type: functional, Brain
Rattus norvegicus [30] = species: Rattus norvegicus; assay: Compound was evaluated for the measurement of Cerebral blood flow in cingulate cortex of Rats (normocapnia); assay type: functional, Brain
Rattus norvegicus [31] = species: Rattus norvegicus; assay: Compound was evaluated for the measurement of Cerebral blood flow in frontal cortex of Rats (hypercapnia); assay type: functional
Rattus norvegicus [32] = species: Rattus norvegicus; assay: Compound was evaluated for the measurement of Cerebral blood flow in frontal cortex of Rats (normocapnia); assay type: functional
Rattus norvegicus [33] = species: Rattus norvegicus; assay: Compound was evaluated for the measurement of Cerebral blood flow in globus pallidus of Rats (hypercapnia); assay type: functional
Rattus norvegicus [34] = species: Rattus norvegicus; assay: Compound was evaluated for the measurement of Cerebral blood flow in globus pallidus of Rats (normocapnia); assay type: functional
Rattus norvegicus [35] = species: Rattus norvegicus; assay: Compound was evaluated for the measurement of Cerebral blood flow in habenula of Rats (hypercapnia); assay type: functional
Rattus norvegicus [36] = species: Rattus norvegicus; assay: Compound was evaluated for the measurement of Cerebral blood flow in habenula of Rats (normocapnia); assay type: functional
Rattus norvegicus [37] = species: Rattus norvegicus; assay: Compound was evaluated for the measurement of Cerebral blood flow in hippocampus cortex of Rats (hypercapnia); assay type: functional
Rattus norvegicus [38] = species: Rattus norvegicus; assay: Compound was evaluated for the measurement of Cerebral blood flow in hippocampus cortex of Rats (normocapnia); assay type: functional
Rattus norvegicus [39] = species: Rattus norvegicus; assay: Compound was evaluated for the measurement of Cerebral blood flow in hypothalamus of Rats (hypercapnia); assay type: functional
Rattus norvegicus [40] = species: Rattus norvegicus; assay: Compound was evaluated for the measurement of Cerebral blood flow in hypothalamus of Rats (normocapnia); assay type: functional
Rattus norvegicus [41] = species: Rattus norvegicus; assay: Compound was evaluated for the measurement of Cerebral blood flow in inferior coliculus of Rats (hypercapnia); assay type: functional, Brain
Rattus norvegicus [42] = species: Rattus norvegicus; assay: Compound was evaluated for the measurement of Cerebral blood flow in inferior coliculus of Rats (normocapnia); assay type: functional, Brain
Rattus norvegicus [43] = species: Rattus norvegicus; assay: Compound was evaluated for the measurement of Cerebral blood flow in lateral geniculate body of Rats (hypercapnia); assay type: functional
Rattus norvegicus [44] = species: Rattus norvegicus; assay: Compound was evaluated for the measurement of Cerebral blood flow in lateral geniculate body of Rats (normocapnia); assay type: functional
Rattus norvegicus [45] = species: Rattus norvegicus; assay: Compound was evaluated for the measurement of Cerebral blood flow in auditory cortex of Rats (normocapnia); assay type: functional
Rattus norvegicus [46] = species: Rattus norvegicus; assay: Compound was evaluated for the measurement of Cerebral blood flow in piriform cortex of Rats (hypercapnia); assay type: functional

## Cc1c(I)c(=O)n(-c2ccccc2)n1C [IODOANTIPYRINE]
Rattus norvegicus [1]
  Blood flow: 5.18 100ml g-1 min-1
Rattus norvegicus [2]
  Blood flow: 1.82 100ml g-1 min-1
Rattus norvegicus [3]
  Blood flow: 4.18 100ml g-1 min-1
Rattus norvegicus [4]
  Blood flow: 1.5 100ml g-1 min-1
Rattus norvegicus [5]
  Blood flow: 3.49 100ml g-1 min-1
Rattus norvegicus [6]
  Blood flow: 1.45 100ml g-1 min-1
Rattus norvegicus [7]
  Blood flow: 5.5 100ml g-1 min-1
Rattus norvegicus [8]
  Blood flow: 1.89 100ml g-1 min-1
Rattus norvegicus [9]
  Blood flow: 1.12 100ml g-1 min-1
Rattus norvegicus [10]
  Blood flow: 5.75 100ml g-1 min-1
Rattus norvegicus [11]
  Blood flow: 1.98 100ml g-1 min-1
Rattus norvegicus [12]
  Blood flow: 3.21 100ml g-1 min-1
Rattus norvegicus [13]
  Blood flow: 0.85 100ml g-1 min-1
Rattus norvegicus [14]
  Blood flow: 3.21 100ml g-1 min-1
Rattus norvegicus [15]
  Blood flow: 1.01 100ml g-1 min-1
Rattus norvegicus [16]
  Blood flow: 3.78 100ml g-1 min-1
Rattus norvegicus [17]
  Blood flow: 3.09 100ml g-1 min-1
Rattus norvegicus [18]
  Blood flow: 1.06 100ml g-1 min-1
Rattus norvegicus [19]
  Blood flow: 5.79 100ml g-1 min-1
Rattus norvegicus [20]
  Blood flow: 3.77 100ml g-1 min-1
Rattus norvegicus [21]
  Blood flow: 1.48 100ml g-1 min-1
Rattus norvegicus [22]
  Blood flow: 4.77 100ml g-1 min-1
Rattus norvegicus [23]
  Blood flow: 1.63 100ml g-1 min-1
Rattus norvegicus [24]
  Blood flow: 4.08 100ml g-1 min-1
Rattus norvegicus [25]
  Blood flow: 1.52 100ml g-1 min-1
Rattus norvegicus [26]
  Blood flow: 1.41 100ml g-1 min-1
Rattus norvegicus [27]
  Blood flow: 2.7 100ml g-1 min-1
Rattus norvegicus [28]
  Blood flow: 0.82 100ml g-1 min-1
Rattus norvegicus [29]
  Blood flow: 3.9 100ml g-1 min-1
Rattus norvegicus [30]
  Blood flow: 1.33 100ml g-1 min-1
Rattus norvegicus [31]
  Blood flow: 4.67 100ml g-1 min-1
Rattus norvegicus [32]
  Blood flow: 2.03 100ml g-1 min-1
Rattus norvegicus [33]
  Blood flow: 2.61 100ml g-1 min-1
Rattus norvegicus [34]
  Blood flow: 0.66 100ml g-1 min-1
Rattus norvegicus [35]
  Blood flow: 5.23 100ml g-1 min-1
Rattus norvegicus [36]
  Blood flow: 1.64 100ml g-1 min-1
Rattus norvegicus [37]
  Blood flow: 2.84 100ml g-1 min-1
Rattus norvegicus [38]
  Blood flow: 0.87 100ml g-1 min-1
Rattus norvegicus [39]
  Blood flow: 3.14 100ml g-1 min-1
Rattus norvegicus [40]
  Blood flow: 1.05 100ml g-1 min-1
Rattus norvegicus [41]
  Blood flow: 4.76 100ml g-1 min-1
Rattus norvegicus [42]
  Blood flow: 1.99 100ml g-1 min-1
Rattus norvegicus [43]
  Blood flow: 3.97 100ml g-1 min-1
Rattus norvegicus [44]
  Blood flow: 1.4 100ml g-1 min-1
Rattus norvegicus [45]
  Blood flow: 3.12 100ml g-1 min-1
Rattus norvegicus [46]
  Blood flow: 3.11 100ml g-1 min-1

## Cc1c(C(C)C)c(=O)n(-c2ccccc2)n1C [PROPYPHENAZONE]
Rattus norvegicus [1]
  Blood flow: 6.94 100ml g-1 min-1
Rattus norvegicus [2]
  Blood flow: 2.18 100ml g-1 min-1
Rattus norvegicus [3]
  Blood flow: 5.49 100ml g-1 min-1
Rattus norvegicus [4]
  Blood flow: 1.45 100ml g-1 min-1
Rattus norvegicus [5]
  Blood flow: 4.91 100ml g-1 min-1
Rattus norvegicus [6]
  Blood flow: 1.36 100ml g-1 min-1
Rattus norvegicus [7]
  Blood flow: 6.95 100ml g-1 min-1
Rattus norvegicus [8]
  Blood flow: 1.89 100ml g-1 min-1
Rattus norvegicus [9]
  Blood flow: 1.05 100ml g-1 min-1
Rattus norvegicus [10]
  Blood flow: 7.24 100ml g-1 min-1
Rattus norvegicus [11]
  Blood flow: 1.91 100ml g-1 min-1
Rattus norvegicus [12]
  Blood flow: 3.34 100ml g-1 min-1
Rattus norvegicus [13]
  Blood flow: 0.91 100ml g-1 min-1
Rattus norvegicus [14]
  Blood flow: 3.9 100ml g-1 min-1
Rattus norvegicus [15]
  Blood flow: 1 100ml g-1 min-1
Rattus norvegicus [16]
  Blood flow: 4.66 100ml g-1 min-1
Rattus norvegicus [17]
  Blood flow: 3.65 100ml g-1 min-1
Rattus norvegicus [18]
  Blood flow: 0.95 100ml g-1 min-1
Rattus norvegicus [19]
  Blood flow: 5.66 100ml g-1 min-1
Rattus norvegicus [20]
  Blood flow: 4.18 100ml g-1 min-1
Rattus norvegicus [21]
  Blood flow: 1.49 100ml g-1 min-1
Rattus norvegicus [22]
  Blood flow: 6.84 100ml g-1 min-1
Rattus norvegicus [23]
  Blood flow: 1.73 100ml g-1 min-1
Rattus norvegicus [24]
  Blood flow: 4.97 100ml g-1 min-1
Rattus norvegicus [25]
  Blood flow: 1.3 100ml g-1 min-1
Rattus norvegicus [26]
  Blood flow: 1.35 100ml g-1 min-1
Rattus norvegicus [27]
  Blood flow: 1.98 100ml g-1 min-1
Rattus norvegicus [28]
  Blood flow: 0.83 100ml g-1 min-1
Rattus norvegicus [29]
  Blood flow: 3.45 100ml g-1 min-1
Rattus norvegicus [30]
  Blood flow: 1.34 100ml g-1 min-1
Rattus norvegicus [31]
  Blood flow: 5.34 100ml g-1 min-1
Rattus norvegicus [32]
  Blood flow: 2.26 100ml g-1 min-1
Rattus norvegicus [33]
  Blood flow: 2.85 100ml g-1 min-1
Rattus norvegicus [34]
  Blood flow: 0.73 100ml g-1 min-1
Rattus norvegicus [35]
  Blood flow: 5.29 100ml g-1 min-1
Rattus norvegicus [36]
  Blood flow: 1.43 100ml g-1 min-1
Rattus norvegicus [37]
  Blood flow: 2.77 100ml g-1 min-1
Rattus norvegicus [38]
  Blood flow: 0.87 100ml g-1 min-1
Rattus norvegicus [39]
  Blood flow: 3.63 100ml g-1 min-1
Rattus norvegicus [40]
  Blood flow: 0.97 100ml g-1 min-1
Rattus norvegicus [41]
  Blood flow: 5.3 100ml g-1 min-1
Rattus norvegicus [42]
  Blood flow: 1.99 100ml g-1 min-1
Rattus norvegicus [43]
  Blood flow: 5.46 100ml g-1 min-1
Rattus norvegicus [44]
  Blood flow: 1.45 100ml g-1 min-1
Rattus norvegicus [45]
  Blood flow: 2.36 100ml g-1 min-1
Rattus norvegicus [46]
  Blood flow: 3.56 100ml g-1 min-1

From ChEMBL document CHEMBL1123046, “11C-labeled 4-isopropylantipyrine: preparation and biological evaluation as a blood flow tracer in positron emission tomography (PET)” (1985)
